Data taken from the NIST ThermoML archive (doi:10.1016/j.jct.2007.07.005).
± gives the expanded uncertainty stated by the source.

Conditions: Fluid (supercritical or subcritical phases), vibrating tube

A mass density (342.76 K, 505 kPa) of 776.31 ± 0.43 kg/m3, a mass density (342.76 K, 997 kPa) of 776.77 ± 0.43 kg/m3 and a mass density (342.76 K, 1995 kPa) of 777.69 ± 0.43 kg/m3 were found for `CCCCCO` [pentan-1-ol] in this work. The mass density (342.76 K, 3011 kPa) was 778.59 ± 0.43 kg/m3, the mass density (342.76 K, 4012 kPa) was 779.47 ± 0.43 kg/m3 and the mass density (342.76 K, 5011 kPa) was 780.34 ± 0.44 kg/m3. The mass density (342.76 K, 6011 kPa) was 781.22 ± 0.44 kg/m3, the mass density (342.76 K, 7003 kPa) was 782.03 ± 0.44 kg/m3 and the mass density (342.76 K, 8015 kPa) was 782.91 ± 0.44 kg/m3. The mass density (342.76 K, 9000 kPa) was 783.73 ± 0.44 kg/m3, the mass density (342.76 K, 10019 kPa) was 784.58 ± 0.44 kg/m3 and the mass density (342.76 K, 11020 kPa) was 785.4 ± 0.44 kg/m3. For the same molecule, the mass density (342.76 K, 12002 kPa) was 786.2 ± 0.44 kg/m3, the mass density (342.76 K, 13016 kPa) was 787.02 ± 0.44 kg/m3 and the mass density (342.76 K, 14024 kPa) was 787.81 ± 0.44 kg/m3. It also gave a mass density (342.76 K, 15002 kPa) of 788.59 ± 0.44 kg/m3, a mass density (342.76 K, 16007 kPa) of 789.36 ± 0.44 kg/m3 and a mass density (342.76 K, 17037 kPa) of 790.15 ± 0.44 kg/m3. It also gave a mass density (342.76 K, 17988 kPa) of 790.87 ± 0.45 kg/m3, a mass density (342.76 K, 19037 kPa) of 791.66 ± 0.45 kg/m3 and a mass density (342.76 K, 20003 kPa) of 792.38 ± 0.45 kg/m3. The mass density (342.76 K, 21015 kPa) was 793.14 ± 0.45 kg/m3, the mass density (342.76 K, 22019 kPa) was 793.88 ± 0.45 kg/m3 and the mass density (342.76 K, 23039 kPa) was 794.62 ± 0.45 kg/m3. The mass density (342.76 K, 24027 kPa) was 795.36 ± 0.45 kg/m3, the mass density (342.76 K, 25028 kPa) was 796.1 ± 0.45 kg/m3 and the mass density (352.71 K, 508 kPa) was 768.15 ± 0.43 kg/m3. The mass density (352.71 K, 1011 kPa) was 768.66 ± 0.43 kg/m3, the mass density (352.71 K, 1995 kPa) was 769.61 ± 0.43 kg/m3 and the mass density (352.71 K, 3014 kPa) was 770.57 ± 0.43 kg/m3. It also gave a mass density (352.71 K, 3998 kPa) of 771.49 ± 0.43 kg/m3, a mass density (352.71 K, 5022 kPa) of 772.45 ± 0.43 kg/m3 and a mass density (352.71 K, 6012 kPa) of 773.35 ± 0.44 kg/m3. The mass density (352.71 K, 7006 kPa) was 774.26 ± 0.44 kg/m3, the mass density (352.71 K, 8024 kPa) was 775.17 ± 0.44 kg/m3 and the mass density (352.71 K, 9005 kPa) was 776.05 ± 0.44 kg/m3. For the same molecule, the mass density (352.71 K, 10016 kPa) was 776.94 ± 0.44 kg/m3, the mass density (352.71 K, 11026 kPa) was 777.81 ± 0.44 kg/m3 and the mass density (352.71 K, 12001 kPa) was 778.65 ± 0.44 kg/m3. The mass density (352.71 K, 13002 kPa) was 779.5 ± 0.44 kg/m3, the mass density (352.71 K, 14026 kPa) was 780.35 ± 0.44 kg/m3 and the mass density (352.71 K, 15000 kPa) was 781.18 ± 0.44 kg/m3. It also gave a mass density (352.71 K, 16005 kPa) of 781.98 ± 0.44 kg/m3, a mass density (352.71 K, 17023 kPa) of 782.81 ± 0.44 kg/m3 and a mass density (352.71 K, 18003 kPa) of 783.59 ± 0.44 kg/m3. For the same molecule, the mass density (352.71 K, 19049 kPa) was 784.43 ± 0.45 kg/m3, the mass density (352.71 K, 20035 kPa) was 785.2 ± 0.45 kg/m3 and the mass density (352.71 K, 21002 kPa) was 785.96 ± 0.45 kg/m3. For the same molecule, the mass density (352.71 K, 21995 kPa) was 786.73 ± 0.45 kg/m3, the mass density (352.71 K, 23020 kPa) was 787.52 ± 0.45 kg/m3 and the mass density (352.71 K, 24045 kPa) was 788.32 ± 0.45 kg/m3. The mass density (352.71 K, 25009 kPa) was 789.05 ± 0.45 kg/m3, the mass density (362.59 K, 517 kPa) was 759.7 ± 0.43 kg/m3 and the mass density (362.59 K, 1023 kPa) was 760.25 ± 0.43 kg/m3. For the same molecule, the mass density (362.59 K, 2005 kPa) was 761.26 ± 0.43 kg/m3, the mass density (362.59 K, 3010 kPa) was 762.29 ± 0.43 kg/m3 and the mass density (362.59 K, 3998 kPa) was 763.28 ± 0.43 kg/m3. The mass density (362.59 K, 5006 kPa) was 764.25 ± 0.43 kg/m3, the mass density (362.59 K, 6013 kPa) was 765.23 ± 0.43 kg/m3 and the mass density (362.59 K, 7014 kPa) was 766.21 ± 0.44 kg/m3. It also gave a mass density (362.59 K, 8007 kPa) of 767.16 ± 0.44 kg/m3, a mass density (362.59 K, 9020 kPa) of 768.1 ± 0.44 kg/m3 and a mass density (362.59 K, 10006 kPa) of 769.02 ± 0.44 kg/m3. The mass density (362.59 K, 10991 kPa) was 769.93 ± 0.44 kg/m3, the mass density (362.59 K, 12025 kPa) was 770.87 ± 0.44 kg/m3 and the mass density (362.59 K, 13008 kPa) was 771.76 ± 0.44 kg/m3. It also gave a mass density (362.59 K, 13998 kPa) of 772.62 ± 0.44 kg/m3, a mass density (362.59 K, 15017 kPa) of 773.51 ± 0.44 kg/m3 and a mass density (362.59 K, 16000 kPa) of 774.37 ± 0.44 kg/m3. The mass density (362.59 K, 17013 kPa) was 775.24 ± 0.44 kg/m3, the mass density (362.59 K, 18032 kPa) was 776.11 ± 0.44 kg/m3 and the mass density (362.59 K, 19003 kPa) was 776.9 ± 0.44 kg/m3. For the same molecule, the mass density (362.59 K, 20030 kPa) was 777.77 ± 0.45 kg/m3, the mass density (362.59 K, 20987 kPa) was 778.55 ± 0.45 kg/m3 and the mass density (362.59 K, 22033 kPa) was 779.4 ± 0.45 kg/m3. For the same molecule, the mass density (362.59 K, 23000 kPa) was 780.2 ± 0.45 kg/m3, the mass density (362.59 K, 24031 kPa) was 781.02 ± 0.45 kg/m3 and the mass density (362.59 K, 25026 kPa) was 781.82 ± 0.45 kg/m3.
